The NIST ThermoML archive (doi:10.1021/acs.jced.7b01135)
± gives the expanded uncertainty stated by the source. Each block holds one molecule with its values, some of them ahead of it.

Key:
[1] = wn = mass fraction of the nth substance listed; settings: 298.2 K; 101.3 kPa; Liquid; Pycnometric method; w1 = 0.2
[2] = refractive index (Na D-line) (dimensionless); wn = mass fraction of the nth substance listed; settings: 101.3 kPa, Liquid, Standard Abbe refractometry
[3] = 298.2 K; 101.33 kPa; Liquid; Pycnometric method
[4] = refractive index (Na D-line) (dimensionless); settings: 298.2 K; 101.33 kPa; Liquid; Standard Abbe refractometry

mass density [1]: 1085.86 ± 2 kg/m3 | refractive index ([2]; 298.2 K, w1 = 0.2): 1.356 ± 0.012
Structure (SMILES): O=C(O)CC(O)(CC(=O)O)C(=O)O [citric acid] + O

mass density [3]: 826.86 ± 2 kg/m3 | refractive index [4]: 1.4346 ± 0.012
Structure (SMILES): CCCCCCCCCCO [decan-1-ol]

refractive index ([2]; 298.2 K, w2 = 0.9975): 1.33545 ± 0.012 | refractive index ([2]; 308.2 K, w2 = 0.9938): 1.33463 ± 0.012 | refractive index ([2]; 318.2 K, w2 = 0.9901): 1.33317 ± 0.012 | refractive index ([2]; 328.2 K, w2 = 0.9864): 1.33224 ± 0.012
Structure (SMILES): CCCCCCCCCCO [decan-1-ol] + O

refractive index [4]: 1.3324 ± 0.012
Structure (SMILES): O [water]
